Test results: article PMC11211886 (Frontiers in Pharmacology, 2024)
Converted amounts (≈) assume the structure as drawn. “And” between values parts separate entries of the source, which are not always exact repeats. Identical values can stand only once.

Tests used:
CYP2B6 = biological target: T1, CYP2B6 (Homo sapiens, UniProt P20813); test: Reversible CYP inhibition in HLM, CYP2B6 (bupropion); type: in vitro ADME; details: for enzyme activity remaining: CYP2B6, HLM
T1 construct: tissue Life Technologies (Durham, NC, USA); host or cells: human liver microsomes
T1 sequence (P20813 1-491): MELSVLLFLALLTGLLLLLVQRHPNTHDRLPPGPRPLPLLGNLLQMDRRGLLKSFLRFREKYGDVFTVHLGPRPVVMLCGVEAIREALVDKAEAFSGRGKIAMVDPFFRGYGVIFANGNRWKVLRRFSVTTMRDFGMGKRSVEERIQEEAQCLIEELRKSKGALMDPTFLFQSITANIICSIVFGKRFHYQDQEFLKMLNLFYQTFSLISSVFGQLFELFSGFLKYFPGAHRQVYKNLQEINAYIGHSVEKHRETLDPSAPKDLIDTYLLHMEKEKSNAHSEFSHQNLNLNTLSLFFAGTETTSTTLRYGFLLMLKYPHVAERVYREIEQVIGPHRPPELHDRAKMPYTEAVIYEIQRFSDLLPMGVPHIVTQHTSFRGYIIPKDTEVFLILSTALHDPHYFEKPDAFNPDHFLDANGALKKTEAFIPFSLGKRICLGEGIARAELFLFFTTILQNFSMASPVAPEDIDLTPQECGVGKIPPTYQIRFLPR
Procedure: (§1) The markers used to determine the activities of CYP isoforms were phenacetin O-deethylation for CYP1A2 (probe substrate: 50 µM phenacetin), bupropion hydroxylation for CYP2B6 (probe substrate: 70 µM bupropion), paclitaxel 6α-hydroxylation for CYP2C8 (probe substrate: 10 µM paclitaxel), diclofenac 4′-hydroxylation for CYP2C9 (probe substrate: 5 µM diclofenac), S-(+)-mephenytoin 4′-hydroxylation for CYP2C19 (probe substrate: 20 µM S-(+)-mephenytoin), dextromethorphan O-demethylation for CYP2D6 (probe substrate: 6 µM dextromethorphan), chlorzoxazone 6′-hydroxylation for CYP2E1 (probe substrate: 70 µM chlorzoxazone), and testosterone 6β-hydroxylation and midazolam 1′-hydroxylation for CYP3A4/5 (probe substrate: 45 µM testosterone and 5 µM midazolam). […] Alpha-naphthoflavone (0.04 µM), 2-phenyl-2-(1-piperidinyl)propane (5 µM), quercetin (1 µM), sulfaphenazole (0.5 µM), ticlopidine (4 µM), quinidine (0.2 µM), diethyldithiocarbamate (20 µM), and ketoconazole (0.05 µM) were used as positive inhibitors of CYP1A2, 2B6, 2C8, 2C9, 2C19, 2D6, 2E1, and 3A4, respectively. The vehicle control was prepared in the same composition as inhibitor solutions but free of inhibitors. The concentrations of probe substrates were close to Km values that were determined in-house and within the range recommended by the FDA ([Huang et al., 2007]). Reaction mixtures were incubated at 37°C for 5, 20, or 30 min, depending on the probe substrates of CYP isoforms. The reactions were terminated by adding cold acetonitrile containing IS, and the terminated incubation mixtures were centrifuged at 3,000 g for 10 min before LC-MS/MS analysis.

CYP2E1 = biological target: T2, CYP2E1 (Homo sapiens, UniProt P05181); test: Reversible CYP inhibition in HLM, CYP2E1 (chlorzoxazone); type: in vitro ADME; details: for enzyme activity remaining: CYP2E1, HLM
T2 construct: tissue Life Technologies (Durham, NC, USA); host or cells: human liver microsomes
Procedure: as §1

CYP2B6 mRNA = test: CYP induction in human hepatocytes, CYP2B6 mRNA (RT-PCR)
Procedure: (§2) […] […] […] Enzyme activity for each CYP isoform was reported as a fold change over vehicle control and the percent of positive control (detailed calculation in Supplementary 1.1). Hepatocytes were harvested with a lysis buffer from RNeasy 96 Kit (Qiagen Inc., Germantown, MD, USA) to isolate RNA, which was analyzed by real-time quantitative polymerase chain reaction (RT-PCR). […] Emax (the maximal observed induction) and EC50 (the concentration that supports half-maximal induction) were estimated by non-linear regression of fold increase in CYP mRNA expression versus concentration plots.
(§3) % of positive control = [(fold change in treated sample)-1] / [(fold change in positive control)-1] × 100
Based on the gene expression, a minimum of 4-fold increase of positive control compared to vehicle control, a minimum of 2-fold increase of the test article compared vehicle control and increased in a concentration-dependent manner was considered as the cutoff for a positive signal in in vitro induction assay.

CYP3A4 mRNA = test: CYP induction in human hepatocytes, CYP3A4 mRNA (RT-PCR); type: in vitro ADME
Procedure: as §2, §3

Solubility = type: physicochemical; details: water, pH 7.78
[1] = HLM, reversible, without pre-incubation

T2 sequence (P05181 whole entry): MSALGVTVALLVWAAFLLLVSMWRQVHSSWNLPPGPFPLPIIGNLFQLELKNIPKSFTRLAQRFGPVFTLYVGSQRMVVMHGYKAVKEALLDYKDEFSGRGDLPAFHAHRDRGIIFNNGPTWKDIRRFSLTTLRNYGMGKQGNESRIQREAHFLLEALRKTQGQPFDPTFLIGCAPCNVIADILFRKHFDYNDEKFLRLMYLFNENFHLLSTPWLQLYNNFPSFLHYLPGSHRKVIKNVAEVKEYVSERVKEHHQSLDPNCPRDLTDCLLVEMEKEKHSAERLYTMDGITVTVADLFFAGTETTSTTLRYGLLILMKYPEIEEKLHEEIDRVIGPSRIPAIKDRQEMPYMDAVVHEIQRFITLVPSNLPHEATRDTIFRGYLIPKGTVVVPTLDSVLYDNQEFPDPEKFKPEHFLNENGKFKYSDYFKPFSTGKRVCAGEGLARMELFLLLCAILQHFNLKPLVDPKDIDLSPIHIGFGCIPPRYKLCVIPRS

## C[C@H](Nc1ncnc(N)c1C#N)c1cc2ncc(Cl)n2nc1-c1ccccc1 [Amdizalisib]
CYP2B6; 0.4 μM
  enzyme activity remaining: 100% and 98.9%
CYP2B6; 2 μM
  enzyme activity remaining: 96.2% and 92.1%
CYP2B6; 5 μM
  enzyme activity remaining: 97.4% and 95.1%
CYP2B6; 10 μM
  enzyme activity remaining: 97.7% and 96.6%
CYP2B6; 25 μM
  enzyme activity remaining: 87.6%
CYP2B6; 50 μM
  enzyme activity remaining: 79.7% and 77.1%
CYP2B6; [1]
  IC50: > 50 µM
CYP2E1; 0.08 μM
  enzyme activity remaining: 99.7% and 97.6%
CYP2E1; 0.4 μM
  enzyme activity remaining: 99.0% and 96.9%
CYP2E1; 2 μM
  enzyme activity remaining: 101% and 95.5%
CYP2E1; 10 μM
  enzyme activity remaining: 105% and 97.6%
CYP2E1; 50 μM
  enzyme activity remaining: 118% and 113%
CYP2E1; [1]
  IC50: > 50 µM
CYP2B6 mRNA
  R3 value (CYP2B6 induction, basic kinetic model): ≤ 0.8
CYP2B6 mRNA; 20 uM
  induction on CYP2B6 mRNA expression: >2-fold induction on CYP1A2, 2B6, 3A4, 2C9 mRNA expression at 20 uM
CYP2B6 mRNA; CYP2B6, donor seven, 1 µM
  Gene expression Percent of PC (%): 9.50%
CYP2B6 mRNA; CYP2B6, donor seven, 3 µM
  Gene expression Percent of PC (%): 1.70%
CYP2B6 mRNA; CYP2B6, donor seven, 10 µM
  Gene expression Percent of PC (%): 60.8%
CYP2B6 mRNA; CYP2B6, donor seven, 20 µM
  Gene expression Percent of PC (%): 22.4%
CYP2B6 mRNA; CYP2B6, donor seven, 30 µM
  Gene expression Percent of PC (%): 43.7%
CYP2B6 mRNA; CYP2B6, donor six, 1 µM
  Gene expression Percent of PC (%): 2.50%
CYP2B6 mRNA; CYP2B6, donor six, 3 µM
  Gene expression Percent of PC (%): 5.50%
CYP2B6 mRNA; CYP2B6, donor six, 10 µM
  Gene expression Percent of PC (%): 34.3%
CYP2B6 mRNA; CYP2B6, donor six, 20 µM
  Gene expression Percent of PC (%): 36.8%
CYP2B6 mRNA; CYP2B6, donor six, 30 µM
  Gene expression Percent of PC (%): 25.2%
CYP2B6 mRNA; CYP2B6, donor two, 1 µM
  Gene expression Percent of PC (%): 5.40%
CYP2B6 mRNA; CYP2B6, donor two, 3 µM
  Gene expression Percent of PC (%): 2.30%
CYP2B6 mRNA; CYP2B6, donor two, 10 µM
  Gene expression Percent of PC (%): 29.6%
CYP2B6 mRNA; CYP2B6, donor two, 20 µM
  Gene expression Percent of PC (%): 18.1%
CYP2B6 mRNA; CYP2B6, donor two, 30 µM
  Gene expression Percent of PC (%): 39.0%
CYP2B6 mRNA; donor seven
  Emax, CYP2B6 expression: 5.42 fold
CYP2B6 mRNA; donor six
  Emax, CYP2B6 expression: 7.94 fold
CYP2B6 mRNA; donor two
  Emax, CYP2B6 expression: 3.39 fold
CYP3A4 mRNA
  R3 value (CYP3A4 induction, basic kinetic model): ≤ 0.8
CYP3A4 mRNA; 20 uM
  induction on CYP3A4 mRNA expression: >2-fold induction on CYP1A2, 2B6, 3A4, 2C9 mRNA expression at 20 uM
CYP3A4 mRNA; CYP3A4, donor seven, 1 µM
  Gene expression Percent of PC (%): 8.40%
CYP3A4 mRNA; CYP3A4, donor seven, 3 µM
  Gene expression Percent of PC (%): 2.70%
CYP3A4 mRNA; CYP3A4, donor seven, 10 µM
  Gene expression Percent of PC (%): 46.6%
CYP3A4 mRNA; CYP3A4, donor seven, 20 µM
  Gene expression Percent of PC (%): 23.3%
CYP3A4 mRNA; CYP3A4, donor seven, 30 µM
  Gene expression Percent of PC (%): 53.6%
CYP3A4 mRNA; CYP3A4, donor six, 1 µM
  Gene expression Percent of PC (%): 1.00%
CYP3A4 mRNA; CYP3A4, donor six, 3 µM
  Gene expression Percent of PC (%): 1.60%
CYP3A4 mRNA; CYP3A4, donor six, 10 µM
  Gene expression Percent of PC (%): 11.9%
CYP3A4 mRNA; CYP3A4, donor six, 20 µM
  Gene expression Percent of PC (%): 21.4%
CYP3A4 mRNA; CYP3A4, donor six, 30 µM
  Gene expression Percent of PC (%): 21.9%
CYP3A4 mRNA; CYP3A4, donor two, 1 µM
  Gene expression Percent of PC (%): 1.30%
CYP3A4 mRNA; CYP3A4, donor two, 3 µM
  Gene expression Percent of PC (%): 0.60%
CYP3A4 mRNA; CYP3A4, donor two, 10 µM
  Gene expression Percent of PC (%): 15.9%
CYP3A4 mRNA; CYP3A4, donor two, 20 µM
  Gene expression Percent of PC (%): 13.4%
CYP3A4 mRNA; CYP3A4, donor two, 30 µM
  Gene expression Percent of PC (%): 28.1%
CYP3A4 mRNA; donor seven
  Emax, CYP3A4 expression: 6.97 fold
CYP3A4 mRNA; donor six
  Emax, CYP3A4 expression: 35.7 fold
CYP3A4 mRNA; donor two
  Emax, CYP3A4 expression: > 26.5 fold
Solubility
  solubility: 25 µg/mL (≈ 64 µM)
